Assay results as given in patent publication US4599362A, “2-aryl-ethyl ether derivatives and insecticidal and acaricidal agents containing said derivatives” (priority 1980, dated 1986).
In brackets after ≈: the same amount, converted by molar mass. Where two headings read alike, the source gives them in different places.

Legend:
[1] = tested on: resistant green rice leafhopper (collected at Nakagawara); test: Test 3: Effect on Resistant Green Rice Leafhopper; type: in vivo, Nephotettix cincticeps Uhler; conditions: Nephotettix cincticeps, 24 h, read-out: Mortality (%) Green Rice Leafhopper Collected at Nakagawara
Method: (§1) To a mixture of 20 parts of the compound of the present invention and 20 parts of Sorpol SM-200 (registered trademark for the product supplied by Toho Chemical Industrial Co., Ltd.) was added 60 parts of xylol, and the mixture was sufficiently blended. The obtained emulsifiable concentrate was diluted at a predetermined concentration with distilled water, and the obtained dilution was used.
(§2) Seedlings (having 2 to 3 leaves) of paddy rice were hydroponically cultured in a pot having a diameter of 5 cm. A chemical dilution having a concentration of 100 or 20 ppm, prepared in the same manner as described in Test 1, was applied with a sprayer at a rate of 3 ml per pot. The treated seedlings were air-dried and covered with a metal net cylinder, and female adults of resistant green rice leafhopper (collected at Nakagawara) and sensitive green rice leafhopper (collected at Chigasaki) were set, respectively, free in the pot at a density of 10 adults per pot. After of 24 hours, the numbers of killed and living adults were counted and the mortality was calculated. The test was made on three pots and the average value was calculated.

[2] = Test 9: Toxicity Test (acute oral, mice); conditions: mouse, in vivo, po
Method: In the fish toxicity test, the test compound was dissolved in acetone to form a 1% solution, and a predetermined amount of the solution was used. In the mouse toxicity test, the test compound of the present invention was dissolved or suspended in corn oil, and a predetermined amount of the solution or suspension was used.
A predetermined amount of a solution or suspension of a test compound in corn oil was orally administered to male mice having a body weight of 19 to 23 g (0.2 ml per 10 g of the body weight). After 7 days, the number of killed mice was counted and the influences on the mice were examined.

[3] = tested on: sensitive green rice leafhopper (collected at Chigasaki); test: Test 3: Effect on Sensitive Green Rice Leafhopper; type: in vivo; conditions: Nephotettix cincticeps, female adults, 24 hours
Method: as §1, §2

[4] = Test 8: Fish Toxicity; type: in vivo; conditions: carp, water, carps, concentration at which 1/2 of the test fishes were killed, read-out: Fish Toxicity, TLm48
Method: A water tank having a width of 60 cm, a length of 30 cm and a height of 40 cm was filled with water, and 10 yearling carps having a body length of about 5 cm were set free in the tank and adapted to the environment in the tank. A test compound was applied so that the concentration in water was 10, 1, or 0.1 ppm. After 48 hours, the numbers of killed and living carps were counted and the influences on the fishes were examined.

[5] = tested on: third-instar larvae of diamond back moth; test: Test 4: Effect on Diamond Back Moth; type: in vivo; conditions: Plutella xylostella, 24 hours
Method: as §1
Cabbage leaves were spread in a plastic cup, and 10 third-instar larvae of diamond back moth were set free in the cup.
A chemical dilution having a concentration of 100 or 20 ppm, prepared in the same manner as described in Test 1, was applied from an applicator at a rate of 3 ml per cup.
After scattering of the chemical dilution, the cup was covered, and after 24 hours, the numbers of killed and living larvae were counted and the mortality was calculated. The test was made on three cups and the average value was calculated.

[6] = tested on: two-spotted spider mite; test: Test 6: Effect on Two-Spotted Spider mite adults; type: in vivo; conditions: Tetranychus urticae; 500 ppm; adults; 24 hours; read-out: Mortality (%)
Method: as §1
A kidney bean leaf disc perforated with a cork borer (15 mm in diameter) was placed on water-impreganated absorbent cotton (2 cm×2 cm), and 10 adults of two-spotted spider mite were set free. A chemical dilution having a concentration of 500 ppm was applied with an applicator in an amount of 3 ml.
The leaf disc-placed absorbent cotton was placed in a thermostat chamber maintained at 25° C. After 24 hours, the number of killed adults was counted and the mortality was calculated. The test was made on three leaf discs and the average value was calculated.

[7] = tested on: German cockroach; test: Test 7: Effect on German Cockroach; type: in vivo; conditions: Blattella germanica, male adults, 24 hours, agonized and killed; for mortality at 10 mg/m2: 10 mg/m^2; for mortality at 50 mg/m2: 50 mg/m^2
Method: The bottom face of a high Petri dish having a diameter of 9 cm and a height of 9 cm was treated with 50 or 10 mg/m^2 of a test compound and the dish was air-dried. In order to prevent the adults from escaping from the dish, the inner wall of the dish was treated with butter. Then, 10 male adults of German cockroach were set free in each dish, and the dish was placed in a thermostat chamber maintained at 25° C. After 24 hours, the number of agonized and killed adults was counted. The test was made on two dishes and the average value was calculated.

[8] = tested on: green peach aphids; test: Test 5: Effect on green peach Aphid; type: in vivo; conditions: Myzus persicae, 24 hours, mortality class, read-out: Insecticidal Activity
Method: as §1
Seedlings (having 3 to 4 leaves) of an eggplant grown on a pot were inoculated with green peach aphids and the insects were allowed to grow. The number of the insects was counted. A chemical dilution having a concentration of 100 ppm, prepared in the same manner as described in Test 1, was applied with a spray gun at a rate of 10 ml per pot. Then, the pot was placed in a glass green house. After 24 hours, the number of living insects was counted and the mortality was calculated.
The test was made on three pots, and the average value was calculated. In Table 6, mark "A" indicates a mortality higher than 95%, mark "B" indicates a mortality of 80 to 95%, mark "C" indicates a mortality of 50 to 80%, and mark "D" indicates a mortality lower than 50%.

[9] = tested on: Second-instar and fifth-instar larvae of tobacco cutworm; test: Test 2: Tobacco Cutworm Larva Dipping Test; type: in vivo
Method: as §1
A dilution having a chemical concentration of 100 or 20 ppm was prepared in the same manner as described in Test 1.
Second-instar and fifth-instar larvae of tobacco cutworm were dipped in the dilution for 5 seconds, and the excessive dilution was removed by a filter paper. Then, the larvae were set free in a plastic cup and an artificial diet was supplied thereto. The cup was allowed to stand still in a thermostat chamber maintained at 25° C. After 24 hours, the numbers of the killed and living larvae were counted and the mortality was calculated. The test was made on three cups and the result was expressed by an average value.

[10] = topical, 24 h, read-out: Mortality (%) Fifth-Instar Larvae

Structure (SMILES): COc1ccc(C(C)(C)COCc2ccc(F)c(Oc3ccc(F)cc3)c2)cc1 [Compound 5, 3-(4-Fluorophenoxy)-4-fluorobenzyl 2-(4-methoxyphenyl)-2-methylpropyl ether]
- mortality at 20 ppm [1]: 100%
- mortality at 100 ppm [1]: 100%
- LD50 at 168 h [2]: > 500 mg/kg
- mortality at 20 ppm [3]: 100%
- mortality at 100 ppm [3]: 100%
- LC50 at 48 h [4]: > 1 µg/mL

Structure (SMILES): CC(C)(COCc1cc(Oc2ccccc2)ccc1Cl)c1ccc(Cl)cc1 [Compound 7, 3-phenoxy-6-chlorobenzyl 2-(4-chlorophenyl)-2-methylpropyl ether]
- LD50 at 168 h [2]: > 500 mg/kg
- LC50 at 48 h [4]: > 10 µg/mL

Structure (SMILES): CC(C)(COCc1ccc(F)c(Oc2cccc(Cl)c2)c1)c1ccc(Cl)cc1 [Compound 9, 3-(3-Chlorophenoxy)-4-fluorobenzyl 2-(4-chlorophenyl)-2-methylpropyl ether]
- LD50 at 168 h [2]: > 500 mg/kg
- LC50 at 48 h [4]: > 1 µg/mL

Structure (SMILES): CC(C)(COCc1ccc(F)c(Oc2ccccc2)c1)c1ccc(Cl)c(Cl)c1 [Compound 14, 3-Phenoxy-4-fluorobenzyl 2-(3,4-dichlorophenyl)-2-methylpropyl ether]
- mortality at 20 ppm [5]: 100%
- mortality at 100 ppm [5]: 100%
- mortality at 500 ppm [6]: 100%
- LC50 at 48 h [4]: > 1 µg/mL

Structure (SMILES): COc1ccc(C(C)(C)COCc2ccc(F)c(Oc3ccccc3)c2)cc1 [Compound 16, 3-Phenoxy-4-fluorobenzyl 2-(4-methoxyphenyl)-2-methylpropyl ether]
- mortality at 20 ppm [5]: 80%
- mortality at 100 ppm [5]: 100%
- mortality at 10 mg/m2 [7]: 90%
- mortality at 50 mg/m2 [7]: 100%
- LC50 at 48 h [4]: > 0.5 µg/mL

Structure (SMILES): Cc1cccc(C(C)(C)COCc2ccc(F)c(Oc3ccccc3)c2)c1 [Compound 19, 3-phenoxy-4-fluorobenzyl 2-(3-methylphenyl)-2-methylpropylether]
- mortality at 20 ppm [5]: 100%
- mortality at 100 ppm [5]: 100%
- mortality at 10 mg/m2 [7]: 90%
- mortality at 50 mg/m2 [7]: 100%
- LC50 at 48 h [4]: > 1 µg/mL

Structure (SMILES): CCC(C)(COCc1ccc(F)c(Oc2ccccc2)c1)c1ccc(Cl)cc1 (stereo not shown) [Compound 20, 3-Phenoxy-4-fluorobenzyl 2-(4-chlorophenyl)-2-methylbutyl ether]
- mortality at 20 ppm [1]: 100%
- mortality at 100 ppm [1]: 100%
- mortality at 20 ppm [5]: 100%
- mortality at 100 ppm [5]: 100%
- mortality at 10 mg/m2 [7]: 100%
- mortality at 50 mg/m2 [7]: 100%
- mortality at 500 ppm [6]: 100%
- LD50 at 168 h [2]: > 500 mg/kg
- mortality at 20 ppm [3]: 100%
- mortality at 100 ppm [3]: 100%
- LC50 at 48 h [4]: > 1 µg/mL

Structure (SMILES): CC(C)(COCc1ccc(F)c(Oc2ccc(F)cc2)c1)c1ccc(Cl)c(Cl)c1 [Compound 24, 3-(4-Fluorophenoxy)-4-fluorobenzyl 2-(3,4-dichlorophenyl)-2-methylpropyl ether]
- mortality at 20 ppm [5]: 90%
- mortality at 100 ppm [5]: 100%
- LC50 at 48 h [4]: > 1 µg/mL

Structure (SMILES): CC(C)(COCc1cc(Oc2ccccc2)ccc1Br)c1ccc(Cl)cc1 [Compound 26, 3-Phenoxy-6-bromobenzyl 2-(4-chlorophenyl)-2-methylpropyl ether]
- LD50 at 168 h [2]: > 500 mg/kg
- LC50 at 48 h [4]: > 10 µg/mL

Structure (SMILES): Cc1ccc(C(C)(C)COCc2ccc(F)c(Oc3ccccc3)c2)cc1 [Compound 28, 3-phenoxy-4-fluorobenzyl 2-(4-methylphenyl)-2-methylpropyl ether]
- mortality at 20 ppm [1]: 100%
- mortality at 100 ppm [1]: 100%
- mortality at 20 ppm [5]: 100%
- mortality at 100 ppm [5]: 100%
- mortality at 10 mg/m2 [7]: 100%
- mortality at 50 mg/m2 [7]: 100%
- mortality at 100 ppm [8]: > 95%
- mortality at 20 ppm [3]: 100%
- mortality at 100 ppm [3]: 100%
- LC50 at 48 h [4]: > 1 µg/mL

Structure (SMILES): Cc1ccc(C(C)(C)COCc2cc(Oc3ccccc3)ccc2Cl)cc1 [Compound 31, 3-Phenoxy-6-chlorobenzyl 2-(4-methylphenyl)-2-methylpropyl ether]
- LD50 at 168 h [2]: > 500 mg/kg
- LC50 at 48 h [4]: > 10 µg/mL

Structure (SMILES): CCOc1ccc(C(C)(C)COCc2ccc(F)c(Oc3ccccc3)c2)cc1 [Compound 36, 3-Phenoxy-4-fluorobenzyl 2-(4-ethoxyphenyl)-2-methylpropyl ether]
- mortality at 20 ppm [1]: 100%
- mortality at 100 ppm [1]: 100%
- mortality at 20 ppm [5]: 100%
- mortality at 100 ppm [5]: 100%
- mortality at 10 mg/m2 [7]: 100%
- mortality at 50 mg/m2 [7]: 100%
- mortality at 100 ppm [8]: > 95%
- LD50 at 168 h [2]: > 500 mg/kg
- mortality at 20 ppm [3]: 100%
- mortality at 100 ppm [3]: 100%
- mortality at 20 ppm ([9]; 20 ppm, second-instar larvae, 24 hours, read-out: Mortality (%) Second-Instar Larvae): 100%
- mortality at 100 ppm ([9]; 100 ppm, second-instar larvae, 24 hours, read-out: Mortality (%) Second-Instar Larvae): 100%
- mortality at 20 ppm [9, 10]: 100%
- mortality at 100 ppm [9, 10]: 100%

Structure (SMILES): CC(C)(COCc1ccc(F)c(Oc2ccccc2)c1)c1ccc(OC2CCCCC2)cc1 [Compound 46, 3-Phenoxy-4-fluorobenzyl 2-(4-cyclohexyloxyphenyl)-2-methylpropyl ether]
- mortality at 20 ppm [1]: 100%
- mortality at 100 ppm [1]: 100%
- mortality at 500 ppm [6]: 100%
- mortality at 20 ppm [3]: 100%
- mortality at 100 ppm [3]: 100%
- LC50 at 48 h [4]: > 1 µg/mL

Structure (SMILES): CCCCOc1ccc(C(C)(C)COCc2ccc(F)c(Oc3ccccc3)c2)cc1 [Compound 49]
- mortality at 20 ppm [1]: 100%
- mortality at 100 ppm [1]: 100%
- mortality at 10 mg/m2 [7]: 100%
- mortality at 50 mg/m2 [7]: 100%
- mortality at 100 ppm [8]: > 95%
- mortality at 20 ppm [3]: 100%
- mortality at 100 ppm [3]: 100%
- LC50 at 48 h [4]: ~0.5 µg/mL (≈ 1.18 µM)

Structure (SMILES): CCOc1ccc(C(C)(C)CSCc2ccc(F)c(Oc3ccccc3)c2)cc1Cl [Compound 51]
- mortality at 20 ppm [5]: 80%
- mortality at 100 ppm [5]: 100%
- mortality at 10 mg/m2 [7]: 100%
- mortality at 50 mg/m2 [7]: 100%
- mortality at 500 ppm [6]: 90%
- mortality at 100 ppm [8]: > 95%
- LD50 at 168 h [2]: > 500 mg/kg

Structure (SMILES): CC(C)Sc1ccc(C(C)(C)COCc2ccc(F)c(Oc3ccccc3)c2)cc1 [Compound 54, 3-Phenoxy-4-fluorobenzyl 2-(4-isopropylthiophenyl)-2-methylpropyl ether]
- mortality at 20 ppm [5]: 100%
- mortality at 100 ppm [5]: 100%
- mortality at 10 mg/m2 [7]: 100%
- mortality at 50 mg/m2 [7]: 100%
- mortality at 500 ppm [6]: 100%
- mortality at 100 ppm [8]: > 95%
- LD50 at 168 h [2]: > 500 mg/kg
